{"source": "the supplement of paper PMC10307832", "experiment_in_all_cases": "relative viability (nuclei count vs DMSO), 5 days (fraction); higher = more cells survive", "key": {"[1]": {"system": "A-427", "in_short": "(§1)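 After 5 days of treatment, lung cancer cells in 1536-well plates were fixed and stained in a single step (final 0.05% Triton X-100, 1% formaldehyde, 1 ug/ml Hoechst) and their nuclei counted on 4× images. Treatment had been applied by pin tool the day after seeding as one drug alone or as a fixed anchor-drug dose with five library-drug doses (not always all listed) in √10 steps. Relative viability is the nuclei count of treated wells divided by that of vehicle wells, and values are medians of duplicate plates.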"}, "[2]": {"system": "HCC-15", "in_short": "as §1"}, "[3]": {"system": "HCC-78", "in_short": "as §1"}, "[4]": {"system": "HOP-62", "in_short": "as §1"}, "[5]": {"system": "LC-2-ad", "in_short": "as §1"}, "[6]": {"system": "LOU-NH91", "in_short": "as §1"}, "[7]": {"system": "LXF-289", "in_short": "as §1"}, "[8]": {"system": "NCI-H1734", "in_short": "as §1"}, "[9]": {"system": "NCI-H1755", "in_short": "as §1"}, "[10]": {"system": "NCI-H1792", "in_short": "as §1"}, "[11]": {"system": "NCI-H1915", "in_short": "as §1"}, "[12]": {"system": "NCI-H1975", "in_short": "as §1"}, "[13]": {"system": "NCI-H2126", "in_short": "as §1"}, "[14]": {"system": "NCI-H2228", "in_short": "as §1"}, "[15]": {"system": "NCI-H2347", "in_short": "as §1"}, "[16]": {"system": "NCI-H460", "in_short": "as §1"}, "[17]": {"system": "NCI-H647", "in_short": "as §1"}, "[18]": {"system": "PC-3 [JPC-3]", "in_short": "as §1"}, "[19]": {"system": "RERF-LC-KJ", "in_short": "as §1"}, "[20]": {"system": "SK-LU-1", "in_short": "as §1"}, "[21]": {"system": "SW 1573", "in_short": "as §1"}}}
{"smiles": "CC(C)Oc1cc(Nc2nc(N[C@@H](C)c3ccc(F)cn3)ncc2Cl)n[nH]1", "note": "[AZ23] + CC1(C)CCC(c2ccc(Cl)cc2)=C(CN2CCN(c3ccc(C(=O)NS(=O)(=O)c4ccc(N[C@H](CCN5CCOCC5)CSc5ccccc5)c(S(=O)(=O)C(F)(F)F)c4)cc3)CC2)C1 [Navitoclax] (partner 0.5 µM)", "values": [{"measurement": "relative viability", "setting": "[1]; first compound 0.01 µM", "result": 0.941}, {"measurement": "relative viability", "setting": "[1]; first compound 0.03162 µM", "result": 1.06}, {"measurement": "relative viability", "setting": "[1]; first compound 0.3162 µM", "result": 0.864}, {"measurement": "relative viability", "setting": "[2]; first compound 0.01 µM", "result": 0.744}, {"measurement": "relative viability", "setting": "[2]; first compound 0.03162 µM", "result": 0.798}, {"measurement": "relative viability", "setting": "[2]; first compound 0.3162 µM", "result": 0.71}, {"measurement": "relative viability", "setting": "[3]; first compound 0.01 µM", "result": 0.617}, {"measurement": "relative viability", "setting": "[3]; first compound 0.03162 µM", "result": 0.662}, {"measurement": "relative viability", "setting": "[3]; first compound 0.3162 µM", "result": 0.488}, {"measurement": "relative viability", "setting": "[4]; first compound 0.01 µM", "result": 0.94}, {"measurement": "relative viability", "setting": "[4]; first compound 0.03162 µM", "result": 1.21}, {"measurement": "relative viability", "setting": "[4]; first compound 0.3162 µM", "result": 1.18}, {"measurement": "relative viability", "setting": "[5]; first compound 0.01 µM", "result": 0.386}, {"measurement": "relative viability", "setting": "[5]; first compound 0.03162 µM", "result": 0.474}, {"measurement": "relative viability", "setting": "[5]; first compound 0.3162 µM", "result": 0.415}, {"measurement": "relative viability", "setting": "[6]; first compound 0.01 µM", "result": 0.619}, {"measurement": "relative viability", "setting": "[6]; first compound 0.03162 µM", "result": 0.744}, {"measurement": "relative viability", "setting": "[6]; first compound 0.3162 µM", "result": 0.746}, {"measurement": "relative viability", "setting": "[7]; first compound 0.01 µM", "result": 1.08}, {"measurement": "relative viability", "setting": "[7]; first compound 0.03162 µM", "result": 0.951}, {"measurement": "relative viability", "setting": "[7]; first compound 0.3162 µM", "result": 0.888}, {"measurement": "relative viability", "setting": "[8]; first compound 0.01 µM", "result": 0.905}, {"measurement": "relative viability", "setting": "[8]; first compound 0.03162 µM", "result": 0.973}, {"measurement": "relative viability", "setting": "[8]; first compound 0.3162 µM", "result": 0.721}, {"measurement": "relative viability", "setting": "[9]; first compound 0.01 µM", "result": 1.17}, {"measurement": "relative viability", "setting": "[9]; first compound 0.03162 µM", "result": 1.11}, {"measurement": "relative viability", "setting": "[9]; first compound 0.3162 µM", "result": 1.03}, {"measurement": "relative viability", "setting": "[10]; first compound 0.01 µM", "result": 0.763}, {"measurement": "relative viability", "setting": "[10]; first compound 0.03162 µM", "result": 0.858}, {"measurement": "relative viability", "setting": "[10]; first compound 0.3162 µM", "result": 0.693}, {"measurement": "relative viability", "setting": "[11]; first compound 0.01 µM", "result": 0.799}, {"measurement": "relative viability", "setting": "[11]; first compound 0.03162 µM", "result": 0.845}, {"measurement": "relative viability", "setting": "[11]; first compound 0.3162 µM", "result": 0.797}, {"measurement": "relative viability", "setting": "[12]; first compound 0.01 µM", "result": 1.24}, {"measurement": "relative viability", "setting": "[12]; first compound 0.03162 µM", "result": 1.41}, {"measurement": "relative viability", "setting": "[12]; first compound 0.3162 µM", "result": 1.2}, {"measurement": "relative viability", "setting": "[13]; first compound 0.01 µM", "result": 0.835}, {"measurement": "relative viability", "setting": "[13]; first compound 0.03162 µM", "result": 0.924}, {"measurement": "relative viability", "setting": "[13]; first compound 0.3162 µM", "result": 0.774}, {"measurement": "relative viability", "setting": "[14]; first compound 0.01 µM", "result": 0.848}, {"measurement": "relative viability", "setting": "[14]; first compound 0.03162 µM", "result": 0.963}, {"measurement": "relative viability", "setting": "[14]; first compound 0.3162 µM", "result": 0.709}, {"measurement": "relative viability", "setting": "[15]; first compound 0.01 µM", "result": 0.858}, {"measurement": "relative viability", "setting": "[15]; first compound 0.03162 µM", "result": 0.755}, {"measurement": "relative viability", "setting": "[15]; first compound 0.3162 µM", "result": 0.818}, {"measurement": "relative viability", "setting": "[16]; first compound 0.01 µM", "result": 1.12}, {"measurement": "relative viability", "setting": "[16]; first compound 0.03162 µM", "result": 1.41}, {"measurement": "relative viability", "setting": "[16]; first compound 0.3162 µM", "result": 1.44}, {"measurement": "relative viability", "setting": "[17]; first compound 0.01 µM", "result": 1.46}, {"measurement": "relative viability", "setting": "[17]; first compound 0.03162 µM", "result": 1.51}, {"measurement": "relative viability", "setting": "[17]; first compound 0.3162 µM", "result": 1.24}, {"measurement": "relative viability", "setting": "[18]; first compound 0.01 µM", "result": 0.881}, {"measurement": "relative viability", "setting": "[18]; first compound 0.03162 µM", "result": 0.863}, {"measurement": "relative viability", "setting": "[18]; first compound 0.3162 µM", "result": 0.762}, {"measurement": "relative viability", "setting": "[19]; first compound 0.01 µM", "result": 0.719}, {"measurement": "relative viability", "setting": "[19]; first compound 0.03162 µM", "result": 1.15}, {"measurement": "relative viability", "setting": "[19]; first compound 0.3162 µM", "result": 0.879}, {"measurement": "relative viability", "setting": "[20]; first compound 0.01 µM", "result": 0.457}, {"measurement": "relative viability", "setting": "[20]; first compound 0.03162 µM", "result": 1.38}, {"measurement": "relative viability", "setting": "[20]; first compound 0.3162 µM", "result": 0.858}, {"measurement": "relative viability", "setting": "[21]; first compound 0.01 µM", "result": 0.991}, {"measurement": "relative viability", "setting": "[21]; first compound 0.03162 µM", "result": 0.952}, {"measurement": "relative viability", "setting": "[21]; first compound 0.3162 µM", "result": 0.833}]}
